Data: US7026359B1, “Utilization of a highly fluorinated oligomeric alkane in ophthalmology” (Bausch & Lomb Incorporated, priority 1999, dated 2006)

Columns and labels:
Format in all cases: physicochemical
[1] = Critical solubility temperature in hexane (CST), qualitative measure of lipophilicity / tissue penetration
From the text: The tissue penetration capacity can be described qualitatively by the critical solubility temperature in hexane (abbreviation: CST). This qualitative measure of lipophilicity is at the same time a measure of the capacity for tissue penetration.

Density = experiment: Density
Refractive index = experiment: Refractive index
Surface tension = experiment: Surface tension
Viscosity = experiment: Viscosity
[2] = Sterilization in an autoclave (stability); conditions: 121° C. in an autoclave
Procedure: The highly fluorinated oligomer (C6F13CHCH2)3 is dissolved in fluorocarbons and purified via an Al2O3 chromatographic column. After removal of the solvent the last traces of volatile contaminants are removed in a vacuum. The highly fluorinated trimer according to nuclear spin resonance, infrared and mass spectroscopic tests, a uniform and highly pure substance with a molecular weight of 1055. Charging with an active agent takes place under mild conditions via a solvent that is not miscible with the trimer after distribution to saturation concentration. β-Carotene as active agent changes the color of the oligomer slightly. […] The nuclear magnetic data of this substance are as follows: […]

Critical solubility temperature in n-hexane, CST [1]: 35 °C
Density (Density): 1.661 g/mL
Refractive index n^D20 (Refractive index): 1.3351
Surface tension (Surface tension): 19.5 mN/m
Viscosity (Viscosity): 220 mPa·sec
Substance: (C6F13CHCH2)3 [Example 1]
Stability on sterilization [2]: without the physical or chemical properties of the substances being changed
